Measurements: article PMC10072319 (Bioorganic & medicinal chemistry letters, 2023)

Assays:
[1] = test system: HEK293 cells; assay: Resazurin cell viability; settings: read-out: HEK293 CC50, 48 h, mean ± SD
[2] = test system: T. b. brucei Lister 427; format: cell-based, Trypanosoma brucei brucei; settings: for activity against T. b. brucei, in words: first pass screen at 4 μM
[3] = test system: T. b. brucei trypanosomes; assay: Washout experiment; format: cell-based, Trypanosoma brucei brucei; settings: 1, 2 and 4 μM for 6, 4 and 2 h, washed three times, monitored a further 48 h
[4] = test system: T. b. brucei parasites; assay: Time-kill experiment, parasites quantified by hemocytometer cell counting; format: cell-based, Trypanosoma brucei brucei; settings: for time required to kill the parasites: all concentrations tested (46: 1, 2 and 4 μM; pentamidine: 0.5, 1 and 2 μM)

Row | Structure (SMILES) | activity against T. b. brucei, in words [2] | also measured
1 | O=C(/C=C/c1ccccc1)/C=C/c1ccccc1 [Compound 3, dibenzylideneacetone] | – | CC50 [1]: 8.33 ± 0.48 µM; EC50 ([2]; read-out: T. b. brucei EC50, bloodstream forms, Lister 427, SYBR green, 72 h, mean ± SD): 0.8 ± 0.2 µM
2 | O=C(/C=C/c1ccccc1)CC(=O)/C=C/c1ccccc1 [Compound 5] | no measurable activity | –
3 | COc1cccc(/C=C/C(=O)CC(=O)/C=C/c2cccc(OC)c2)c1 [Compound 7] | inactive | –
4 | COc1ccc(/C=C/C(=O)CC(=O)/C=C/c2ccc(OC)c(OC)c2)cc1OC [Compound 8] | inactive | –
5 | O=C(/C=C/c1ccc(C(F)(F)F)cc1)CC(=O)/C=C/c1ccc(C(F)(F)F)cc1 [Compound 11] | inactive | –
6 | O=C(/C=C/c1ccc(Cl)c(Cl)c1)CC(=O)/C=C/c1ccc(Cl)c(Cl)c1 [Compound 12] | inactive | –
7 | COc1cc(/C=C/C(=O)/C=C/c2cc(OC)c(OC)c(OC)c2)cc(OC)c1OC [Compound 13] | sub-micromolar activity | –
8 | COc1ccc(/C=C/C(=O)/C=C/c2ccc(OC)c(OC)c2)cc1OC [Compound 16] | sub-micromolar activity | selectivity index (SI = HEK293 CC50/T. b. brucei EC50) [2]: above 10
9 | O=C(/C=C/c1ccccc1Cl)/C=C/c1ccccc1Cl [Compound 19] | sub-micromolar activity | selectivity index (SI = HEK293 CC50/T. b. brucei EC50) [2]: above 10
10 | COc1cccc(/C=C/C(=O)/C=C/c2cccc(OC)c2)c1 [Compound 28] | inactive | –
11 | COc1ccc(/C=C/C(=O)/C=C/c2ccc(OC)cc2)cc1 [Compound 29] | inactive | –
12 | COc1cc(/C=C2\CCC/C(=C\c3cc(OC)cc(OC)c3)C2=O)cc(OC)c1 [Compound 34] | inactive | –
13 | COc1ccc(/C=C/C(=O)/C=C/c2ccccc2)cc1 [Compound 35] | no activity | –
14 | CN(C)c1ccc(/C=C/C(=O)/C=C/c2ccccc2)cc1 [Compound 40] | no activity | –
15 | O=C(/C=C/c1ccccc1)/C=C/c1cccc([N+](=O)[O-])c1 [Compound 46] | – | trypanocidal vs trypanostatic activity after washout [3]: trypanocidal rather than trypanostatic; time required to kill the parasites [4]: less than 24 h; time required to kill the parasite ([4]; at 2 and 4 μM): less than 6 h
16 | N=C(N)c1ccc(OCCCCCOc2ccc(C(=N)N)cc2)cc1 [Pentamidine, reference compound] | – | time required to kill the parasites [4]: > 30 h
